These results are taken from patent publication US20260174769A1, “MACROCYCLIC COMPOUNDS AND METHODS OF USE” (AMGEN INC., priority 2022, published 2026).

The subject of assay [1] is Phosphorylation of ERK1/2 in AsPC-1 cells. The assay can be described thus: Phospho-ERK1/2 MSD Assay. In kind it is cell-based, human. As to conditions: AsPC-1 cells, 2 h compound treatment, read-out: 2 h p-ERK (AsPC-1 cells), IC50. As for the experimental part: Sixteen hours prior to compound treatment, AsPC-1 cells were seeded in 96-well cell culture plates at a density of 25,000 cells/well and incubated at 37° C., 5% CO2. A compound dose-response titration was diluted in growth media, added to appropriate wells of a cell culture plate, and then incubated at 37° C., 5% CO2 for 2 hours. […] Phosphorylation of ERK1/2 in compound-treated lysates was assayed using Phospho-ERK 1/2 Whole Cell Lysate kits (Meso Scale Discovery K151DWD) according to the manufacturer's protocol. Assay plates were read on a Meso Scale Discovery Sector Imager 6000, and data were analyzed using a 4-parameter logistic model to calculate IC50 values.

In assay [2] the target is His-tagged KRAS G12D protein (Homo sapiens, UniProt P01116, G12D). The assay can be described thus: KRAS G12D TR-FRET Assay. In kind it is binding. Put shortly: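 GDP-loaded His-KRAS G12D (20 nM in HEPES pH 7.4, MgCl2, NaCl, BSA, Tween-20, 10 μM GDP) preincubated with compound 30 min at room temperature, then 20 nM biotinylated KRPep-2d peptide added for 1 h. TR-FRET detection used Eu anti-His and streptavidin-d2, read after 1 h.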
In general terms: In TR-FRET formats the signal depends on donor and acceptor labels being close together.

Assay [3] concerns the target GDP-bound KRAS protein (aa 1-169), containing both G12D and C118A amino acid substitutions (Homo sapiens, UniProt P01116, C118A/G12D). Put plainly: KRAS G12D Coupled Nucleotide Exchange Assay. Format: biochemical. As for the experimental part: KRAS G12D Coupled Nucleotide Exchange Assay
The assay plates were then read on a PerkinElmer En Vision Multilabel Reader, using AlphaScreen® technology, and data were analyzed using a 4-parameter logistic model to calculate IC50 values.

Where [4] appears, read: 2 hours compound pre-incubation, SOS-mediated nucleotide exchange.
Where [5] appears, read: TR-FRET, read-out: KRAS G12D Binding IC50.

Like-named read-outs stand apart in the source and are kept apart here.

Broadly, the IC50 is the point on the concentration scale where inhibition reaches its midpoint. In the case of `O=C1OCCCc2c(Cl)cc3[nH]ncc3c2-c2ncc3c(nc(OC[C@@]45CCCN4C[C@H](F)C5)nc3c2F)N2CCCC[C@@](CF)(C2)O1` [Example 339, (26S)-18-chloro-32-fluoro-26-(fluoromethyl)-4-(((2R,7aS)-2-fluorotetrahyrdo-1H-pyrrolo[1,2-a]pyrrol-7a(5H)-yl)methoxy)-23,25-dioxa-1,3,5,9,14,15-hexaazahexacyclo[24.4.1.1~6,10~.0~2,7~.0~11,19~.0~12,16~]dotriaconta-2,4,6,8,10(32),11,13,16,18-nonaen-24-one], in assay [1], the IC50 was 826 nM.

With `O=C1CCCc2c(Cl)cc3[nH]ncc3c2-c2ncc3c(nc(OC[C@@]45CCCN4C[C@H](F)C5)nc3c2F)N2CCCC(CC1)C2` (mixture of isomers) [Example 236], the IC50 worked out at 55 nM in assay [2] (TR-FRET binding); 950 nM in assay [1] (Homo sapiens, ASPC1, 2 h); 0.019 µM in assay [3] (setting [4]).

Take `CC12COCCN(C1)c1nc(OC[C@@]34CCCN3C[C@H](F)C4)nc3cc(nnc13)-c1c(c(Cl)cc3[nH]ncc13)CCCOC(=O)O2` (single isomer, unassigned) [Example 362]: the IC50 in assay [2] (TR-FRET binding) was determined as 8 nM; in assay [3] (setting [4]), 0.005 µM.

Regarding `Cc1cc2[nH]ncc2c2c1CCCn1ncc(n1)C1CCCN(C1)c1nc(OC[C@@]34CCCN3C[C@H](F)C4)nc3c(F)c-2ncc13` (stereo partly drawn) [Example 158, 31-Fluoro-25-(((2R,7aS)-2-fluorotetrahydro-1H-pyrrolo[1,2-a]pyrrol-7a(5H)-yl)methoxy)-9-methyl-5,6,14,15,22,24,26,30,33-nonaazaheptacyclo[25.3.1.1˜14,17˜.1˜18,22˜.0˜2,10˜.0˜3,7˜.0˜23,28˜]tritriaconta-1(31),2,4,7,9,15,17(33),23,25,27,29-undecaene], in assay [1] (Homo sapiens, ASPC1, 2 h), the IC50 was 278 nM.

As to `Cc1cc2[nH]ncc2c2c1CCCCCCC1(O)CCCN(C1)c1nc(OC[C@@]34CCCN3C[C@H](F)C4)nc3c(F)c-2ncc13` (mixture of isomers) [Example 44], the IC50 in assay [2] (TR-FRET binding) was determined as 160 nM; in assay [3] (setting [4]), 0.266 µM.

With `Cc1cc2[nH]ncc2c2c1CCCCC(=O)O[C@@H]1CCCN(C1)c1nc(OC[C@@]34CCCN3C[C@H](F)C4)nc3c(F)c-2ncc13` [Example 31, (17R)-30-Fluoro-24-(((2R,7aS)-2-fluorotetrahydro-1H-pyrrolo[1,2-a]pyrrol-7a(5H)-yl)methoxy)-9-methyl-16-oxa-5,6,21,23,25,29-hexaazahexacyclo[24.3.1.1˜17,21˜.0˜2,10˜.0˜3,7˜.0˜22,27˜]hentriaconta-1(30),2,4,7,9,22,24,26,28-nonaen-15-one bis(2,2,2-trifluoroacetate)], the IC50 in assay [2] (read-out: KRAS G12D Binding IC50) was found to be 7 nM; in assay [3], 0.005 µM.

`O=C1N[C@@H]2C[C@H](O)CN(C2)c2nc(OC[C@@]34CCCN3C[C@H](F)C4)nc3c(F)c(ncc23)-c2c(c(Cl)cc3[nH]ncc23)CCCO1` (single isomer, unassigned) [Example 284]: the IC50 came to 5 nM in assay [2] (TR-FRET binding) and 0.002 µM in assay [3] (setting [4]).

As to `CN1C(=O)OCCCc2c(Cl)cc3[nH]ncc3c2-c2ncc3c(nc(OC[C@@]45CCCN4C[C@H](F)C5)nc3c2F)N2C[C@H](O)C[C@H]1C2` (single isomer, unassigned) [Example 287], the figures for the IC50 in assay [2] (TR-FRET binding) and in assay [3] (setting [4]) were 1230 nM and 0.376 µM, respectively.

For `CC12COCCN(C1)c1nc(OC[C@@]34CCCN3C[C@H](F)C4)nc3cc(nnc13)-c1c(c(Cl)cc3[nH]ncc13)CCCOC(=O)O2` (single isomer, unassigned) [Example 363], the IC50 in assay [2] (TR-FRET binding) was 20200 nM; in assay [3] (setting [4]), 5.63 µM.

As for `O=C1OCCc2c(Cl)cc3[nH]ncc3c2-c2ncc3c(nc(OC[C@@]45CCCN4C[C@H](F)C5)nc3c2F)N2CCC[C@]3(C[C@@H](CO3)O1)C2` (single isomer, unassigned) [Example 315], the IC50 amounted to 3 nM in assay [2] (TR-FRET binding) and 0.002 µM in assay [3] (setting [4]).

As for `CN(C)CC1(COc2nc3c4cnc(c(F)c4n2)-c2c(c(Cl)cc4[nH]ncc24)CCOC(=O)O[C@H]2C[C@]4(CCCN3C4)C2)CC1` [Example 334, (1S,3R)-10-chloro-24-((1-((dimethylamino)methyl)cyclopropyl)methoxy)-32-fluoro-4,6-dioxa-13,14,19,23,25,27-hexaazaheptacyclo[25.3.1.1~1,3~.1~18,22~.0~9,17~.0~12,16~.0~21,26~]tritriaconta-9,11,14,16,18(32),19,21,23,25-nonaen-5-one], the IC50 in assay [2] (TR-FRET binding) is 2 nM; in assay [1] (Homo sapiens, ASPC1, 2 h), 8 nM.

Regarding `O=C1OCCc2c(Cl)cc3[nH]ncc3c2-c2ncc3c(nc(OC[C@@]45CCCN4C[C@H](F)C5)nc3c2F)N2CCC[C@@]3(C[C@H](CO3)O1)C2` (single isomer, unassigned) [Example 314], the IC50 came to 21 nM in assay [2] (TR-FRET binding) and 0.011 µM in assay [3] (setting [4]).

With “(17R,18R)-9-chloro-31-fluoro-25-(((2R,7aS)-2-fluorotetrahydro-1H-pyrrolo[1,2-α]pyrrol-7a(5H)-yl)methoxy)-19,33-dioxa-5,6,15,22,24,26,30-heptaazaheptacyclo[25.3.1.1~13,16~.1~18,22~.0~2,10~.0~3,7~.0~23,28~]tritriaconta-1(31),2,4,7,9,13,15,23,25,27,29-undecaen-17-ol [Example 395]”, the IC50 stood at 1170 nM in assay [2] (setting [5]) and 0.198 µM in assay [3] (setting [4]).

Consider `O=C1OCCc2c(Cl)cc3[nH]ncc3c2-c2ncc3c(nc(OC[C@@]45CCCN4C[C@H](F)C5)nc3c2F)N2CCC[C@]3(C2)C[C@H](C3)O1` [Example 333, (1R,3S)-10-chloro-32-fluoro-24-(((2R,7aS)-2-fluorotetrahydro-1H-pyrrolo[1,2-a]pyrrol-7a(5H)-yl)methoxy)-4,6-dioxa-13,14,19,23,25,27-hexaazaheptacyclo[25.3.1.1~1,3~.1~18,22~.0~9,17~.0~12,16~.0~21,26~]tritriaconta-9,11,14,16,18(32),19,21,23,25-nonaen-5-one], for which the figures for the IC50 in assay [2] (TR-FRET binding) and in assay [3] (setting [4]) were 314 nM and 0.127 µM, respectively.

With `O=C1OCCCc2c(Cl)cc3[nH]ncc3c2-c2ncc3c(nc(OC[C@H]4CC[C@@H]5COCCN54)nc3c2F)N2CCOC[C@H](C2)O1` [Example 185, (26S)-18-chloro-32-fluoro-4-((6R,8aR)-hexahydro-1H-pyrrolo[2,1-c][1,4]oxazin-6-ylmethoxy)-23,25,28-trioxa-1,3,5,9,14,15-hexaazahexacyclo[24.4.1.1~6,10~.0~2,7~.0~11,19~.0~12,16~]dotriaconta-2,4,6,8,10(32),11,13,16,18-nonaen-24-one], the figures for the IC50 in assay [2] (TR-FRET binding) and in assay [3] (setting [4]) were 6 nM and 0.005 µM, respectively.

In assay [2] (TR-FRET binding), `O=C1N[C@H]2C[C@@H](O)CN(C2)c2nc(OC[C@@]34CCCN3C[C@H](F)C4)nc3c(F)c(ncc23)-c2c(c(Cl)cc3[nH]ncc23)CCCO1` (single isomer, unassigned) [Example 285] showed an IC50 of 1910 nM.

`Fc1c2ncc3c(nc(OC[C@@]45CCCN4C[C@H](F)C5)nc13)N1CCO[C@H](C1)c1coc(n1)CCCc1c(Cl)cc3[nH]ncc3c1-2` (single isomer, unassigned) [Example 390]: the IC50 in assay [2] (setting [5]) came to 5 nM.

`C[C@@]12CCCCN(C1)c1nc(OC[C@@]34CCCN3C[C@H](F)C4)nc3c(F)c(ncc13)-c1c(c(Cl)cc3[nH]ncc13)CCCCC(=O)N2` (single isomer, unassigned) [Example 166] showed an IC50 in assay [2] (TR-FRET binding) of 5 nM.

For the compound `O=C1CCCCc2c(Cl)cccc2-c2ncc3c(nc(OC[C@@]45CCCN4C[C@H](F)C5)nc3c2F)N2CC[C@H]3CCN1[C@H]3C2` (single isomer, unassigned) [Example 162], the IC50 in assay [2] (TR-FRET binding) amounted to 37 nM.
